{
  "source": "patent US10526580B2",
  "about": "“Differentiated cell population of endothelial cells derived from human pluripotent stem cells, composition, system, kit and uses thereof” (BIOCANT-ASSOCIAÇÃO DE TRANSFERÊNCIA DE TECNOLOGIA, priority 2012, dated 2020)",
  "key": {"[1]": {"test_system": "HUAECs", "test": "7-Cyclo in PDMS microfluidic system, static or flow (qRT-PCR, ELISA)", "assay_type": "cell-based, human", "details": "flow 20 dyne/cm2, 1 μM for 24 h", "protocol": "For the 7-cyclo studies the flow experiments were carried out in a microfluidic system developed by us. The microfluidic device was obtained using a cylindrical mold of 20 Gauge. Polydimethylsiloxane (PDMS) (Sylgard 184 Silicone elastomere base) was mixed at a 10:1 ratio (w/w) with curing agent (Sylgard 184 Silicon Elastomer Curing Agent) and the solution was poured onto a mold (20 gauge needle laid on a plastic dish) and cured at 80° C. for about 3 h. The microchannel was cut to 0.5 cm length (900 μm inner diameter) and treated with Plasma Clean (Electronic Diener Femto Plasma Surface Technology version 5) for 2 min with argon gas (2 mBar) before immersing it in a solution of 0.1% gelatin. […]\n(§1) Evaluation of the levels of vascular injury by specific markers. ELISA kits analyzed supernatants collected from the shear stress experiments for vWF and vWFpp (Gen-Probe GTI Diagnostic) and ADMA (Enzo Life Sciences), according to manufacturer's recommendations.\nTo evaluate the effects of 7-Cyclo in flow conditions, hESC-derived ECs were cultured in a poly(dimethylsiloxane) (PDMS) microfluidic system with cylindrical channels for 7 days at 20 dyne/cm2 (FIG. 5A). […] At day 7, cells were exposed to EGM-2 medium supplemented with 1 μM of 7-Cyclo for 24 h, and finally analyzed at morphological, genetic and secretion levels. […]"}, "[2]": {"test_system": "hESC-derived ECs versus HUAECs", "test": "High-throughput screening of LOPAC library, PrestoBlue cell viability, hESC-derived ECs versus HUAECs", "assay_type": "cell-based, human", "details": "LOPAC screen, 4.5 μM, 4 days, PrestoBlue assay", "protocol": "(§2) High-throughput screening (HTS). HUAECS (Lonza) and hESC-derived ECs were cultured in EGM-2 medium while human anterior cruciate ligament cells (ACL cells) were cultured in Dulbecco's modified Eagle's medium (DMEM; PAA) supplemented with 10% FBS, 0.2 mM ascorbic acid 2-phosphate magnesium salt (Sigma Aldrich), […] streptomycin and 100 U/mL penicillin (Life Technologies). ACL cells were isolated from patients that have signed an informed consent form, in compliance with the Dutch legislation. The ethical committee of Medisch Spectrum Twente Hospital approved the collection.\n(§3) The LOPAC library (Sigma-Aldrich) was used to screen embryonic endothelial-specific cytotoxic compounds. The compounds were solubilized in DMSO. The final compound concentration used in the screen was 4.5 μM in a final volume of 200 μL per well (96-well plate). HUAECs, hESC-derived EC and ACL cells were seeded at 16,000 cells/well (HUAECs and hESC-derived ECs) and 5,000 cells/well (ACL cells) and allowed to reach near confluence (approximately two days). After two days, medium was exchanged and test compounds and controls were added to the 96-well plates (all wells contained 0.25% (v/v) DMSO). After 4 days of incubation, cell viability was assessed using a PrestoBlue (Invitrogen) assay. This assay is based on a resazurin-based solution that indicates the reducing power of living cells and therefore measures indirectly their number. For each measurement, cell medium was removed and the PrestoBlue solution (10%) was added for 3 h at 37° C. upon which the absorbance was measured at 560-590 nm.\n(§4) Disruption of vascular development has been directly correlated with prenatal loss, malformations and neurodevelopmental problems^41-44. […] The library was screened at a single dosage of 4.5 μM in a volume of 200 μL per well of EGM-2 medium, containing 0.25% DMSO (v/v). […] Six compounds (danazol, chlorpromazine hydrochloride, ellipticine, 3′,4′-dichlorobenzamil, fluphenazine dihydrochloride and 7-cyclopentyl-5-(4-phenoxy)phenyl-7H-pyrrolo[2,3-d]pyrimidin-4-ylamine) affected cell viability in both cells by a difference of 20% (FIG. 4B). The six compounds belong to different classes: cell cycle, ion pumps, dopamine pathway, phosphorylation and hormone signaling. The compounds selected from the primary screen were then tested against hESC-derived ECs and HUAECs at eight different concentrations to obtain a dose-response curve (FIG. 4C and FIG. 14)."}, "[3]": {"test_system": "hESC-derived ECs versus ACL cells", "test": "High-throughput screening of LOPAC library, PrestoBlue cell viability, hESC-derived ECs versus ACL cells", "assay_type": "cell-based, human", "details": "LOPAC screen, 4.5 μM, 4 days of incubation, PrestoBlue assay", "protocol": "as §2, §3, §4"}, "[4]": {"test_system": "hESC-derived ECs", "test": "7-Cyclo in PDMS microfluidic system, static or flow (morphology, qRT-PCR, ELISA)", "assay_type": "cell-based, human", "protocol": "For the 7-cyclo studies the flow experiments were carried out in a microfluidic system developed by us. The microfluidic device was obtained using a cylindrical mold of 20 Gauge. Polydimethylsiloxane (PDMS) (Sylgard 184 Silicone elastomere base) was mixed at a 10:1 ratio (w/w) with curing agent (Sylgard 184 Silicon Elastomer Curing Agent) and the solution was poured onto a mold (20 gauge needle laid on a plastic dish) and cured at 80° C. for about 3 h. The microchannel was cut to 0.5 cm length (900 μm inner diameter) and treated with Plasma Clean (Electronic Diener Femto Plasma Surface Technology version 5) for 2 min with argon gas (2 mBar) before immersing it in a solution of 0.1% gelatin. HESC-derived ECs (20×10^6 cells/mL) or HUAECs were seeded on PDMS microchannels (3.18 μL cell suspension per channel) devices and grown until confluence. Using a programmed IBIDI pump with positive pressure, the cell monolayer was perfused with EGM-2 medium for 7 days; shear stress of 20 dyne/cm2 (. After 7 days the flow was stopped, the cells imaged, and then stained or collected for posterior gene analysis. Medium was collected for ELISA assays. In some experiments, cells were cultured in medium supplemented with 1 μM 7-cyclo (Sigma) for an additional time of 24 h, under shear stress. Static controls were carried out in the microfluidic system but without flow.\nas §1\nTo evaluate the effects of 7-Cyclo in flow conditions, hESC-derived ECs were cultured in a poly(dimethylsiloxane) (PDMS) microfluidic system with cylindrical channels for 7 days at 20 dyne/cm2 (FIG. 5A). ECs were able to form a confluent monolayer in the entire inner surface of the channel after 48 h. At day 7, cells were exposed to EGM-2 medium supplemented with 1 μM of 7-Cyclo for 24 h, and finally analyzed at morphological, genetic and secretion levels. […] Importantly, hESC-derived ECs cultured under flow conditions in the presence of 7-Cyclo secrete higher levels of ADMA (2.5 fold) and vWFpp:vWF (1.6 fold) than without the drug, and significant higher levels of ADMA than HUAECs."}, "[5]": {"test_system": "microvessels of hESC-derived ECs", "test": "Matrigel assay, disruption of vascular networks", "assay_type": "cell-based, human", "details": "1 μM, 20 h, on top of Matrigel", "protocol": "(§5) To test the 7-Cyclo properties in the disruption of vascular networks, microvessels of hESC-derived ECs, HUAECs and HAECs were formed on top of Matrigel and then exposed to the drug for 20 h.\n(§6) A 24-well plate was coated with Matrigel (0.4 mL, BD Biosciences) per well and incubated at 37° C. for 30 min. Cells were seeded on top of the polymerized Matrigel at a concentration of 1×10^5 cells per 300 μL of EGM-2 medium. After 1 h of incubation at 37° C., an extra 1 mL of EGM-2 was added. After 12 h, medium supplemented with 7-Cyclo (0, 0.1 or 1 μM) was added. Cord formation was evaluated by phase contrast microscopy (Carl Zeiss International, Germany), at time 0, 3 h and 20 h after 7-Cyclo addition."}, "[6]": {"test_system": "microvessels formed by HUAECs", "test": "Matrigel assay, disruption of vascular networks", "assay_type": "cell-based, human", "details": "1 μM, 20 h, on top of Matrigel", "protocol": "as §5, §6"}, "[7]": {"test_system": "microvessels formed by HAECs", "test": "Matrigel assay, disruption of vascular networks", "assay_type": "cell-based, human", "details": "1 μM, 20 h, on top of Matrigel", "protocol": "as §5, §6"}, "[8]": {"test_system": "HUVECs and lymphatic EC tube formation", "details": "1 μM, in vitro; cited from earlier work"}, "[9]": {"test_system": "Xenopus embryos", "details": "20 μM; cited from earlier work"}, "[10]": {"details": "flow 20 dyne/cm2, 1 μM for 24 h, versus static conditions"}, "[11]": {"details": "flow conditions, 1 μM for 24 h, ELISA"}},
  "data": [
    {"smiles": "Nc1ncnc2c1c(-c1ccc(Oc3ccccc3)cc1)cn2C1CCCC1", "note": "[7-Cyclo, 7-cyclopentyl-5-(4-phenoxy)phenyl-7H-pyrrolo[2,3-d]pyrimidin-4-ylamine]", "values": [
      {"measurement": "down-regulation of DDAH-1 and DDAH-2", "setting": "[1]", "result": "No down-regulation"},
      {"measurement": "expression of inflammatory genes", "setting": "[1]", "result": "only ICAM-1 and eNOS genes were up-regulated"},
      {"measurement": "difference in cell viability between hESC-derived ECs and HUAECs", "setting": "[2]", "result": 20, "unit": "%"},
      {"measurement": "Differences (%) in cell viability (hESC-Derived ECs versus ACL cells)", "setting": "[3]", "result": 65.4, "unit": "%"},
      {"measurement": "cell morphology", "setting": "[4]; flow 20 dyne/cm2, 1 μM for 24 h", "result": "significant alterations"},
      {"measurement": "expression of DDAH1 and DDAH2", "setting": "[4]; [10]", "result": "statistically lower levels"},
      {"measurement": "expression of inflammatory genes ICAM-1, E-selectin, HO-1 and eNOS", "setting": "[4]; [10]", "result": "statistically higher levels"},
      {"measurement": "secreted ADMA versus without the drug", "setting": "[4]; [11]", "result": 2.5, "unit": "fold"},
      {"measurement": "secreted vWFpp:vWF versus without the drug", "setting": "[4]; [11]", "result": 1.6, "unit": "fold"},
      {"measurement": "network length and number of sprouts in microvessels", "setting": "[5]", "result": "statistically significant reduction"},
      {"measurement": "effect on network length and number of sprouts in microvessels", "setting": "[6]", "result": "negligible effect"},
      {"measurement": "effect on network length and number of sprouts in microvessels", "setting": "[7]", "result": "negligible effect"},
      {"measurement": "tube formation", "setting": "[8]", "result": "inhibits"},
      {"measurement": "effect on vasculature of Xenopus embryos", "setting": "[9]", "result": "interfere with angiogenic sprouting and disrupt blood vessel formation"}
    ]}
  ]
}
